Measured values taken from ChEMBL document CHEMBL4840364, “Penicisteckins A-F, Isochroman-Derived Atropisomeric Dimers from Penicillium steckii HNNU-5B18” (J Nat Prod, 2021).
≈ marks a conversion by molar mass, not a printed value.

Columns and labels:
[1] = test system: HGC-27; assay: Cytotoxicity against human HGC-27 cells assessed as inhibition of cell viability measured for 48 hrs by CCK colorimetric assay; assay type: functional, cell-based; conditions: HGC-27, 48 h
[2] = test system: SH-SY5Y; assay: Cytotoxicity against human SH-SY5Y cells assessed as inhibition of cell viability measured for 48 hrs by CCK colorimetric assay; assay type: functional, cell-based
[3] = test system: C6; assay: Cytotoxicity against rat C6 cells assessed as inhibition of cell viability measured for 48 hrs by CCK colorimetric assay; assay type: functional, cell-based; conditions: C6, 48 h
[4] = test system: Staphylococcus aureus; assay: Antibacterial activity against Staphylococcus aureus ATCC 29213 assessed as bacterial growth inhibition incubated for 20 hrs by broth micro dilution method; assay type: functional
[5] = test system: Staphylococcus aureus; assay: Antibacterial activity against methicillin-resistant Staphylococcus aureus assessed as bacterial growth inhibition incubated for 20 hrs by broth micro dilution method; assay type: functional

SMILES	IC50 [1] [µM]	IC50 [2] [µM]	IC50 [3] [µM]	MIC [4] [µg/mL]	MIC [5] [µg/mL]
COc1cc(O)c(C)c2c1CO[C@@H](C)C2	< 10	< 10	< 10		
COC1=CC(=O)C(C)=C(C[C@@H](C)O)C1=O	< 10	< 10	< 10	2 (≈ 9.51 µM)	8 (≈ 38.1 µM)
COc1c2c(c(C)c(O)c1-c1c(O)c(C)c3c(c1OC)CO[C@@H](C)C3)C[C@H](C)OC2 (atropisomer aR)	< 10	< 10	< 10		
COc1cc(O)c(-c2c(O)c(C)c3c(c2OC)CO[C@@H](C)C3)c2c1CO[C@@H](C)C2 (atropisomer aS)	< 10	< 10	< 10		
COC1=C(c2c(O)cc(OC)c3c2C[C@H](C)OC3)C(=O)C(C)=C(C[C@@H](C)O)C1=O (atropisomer aS)	< 10	< 10	< 10		
